# Experimental data from paper PMC7914897, “Cytotoxic Potential of a-Azepano- and 3-Amino-3,4-SeCo-Triterpenoids” (International Journal of Molecular Sciences, 2021).
# Like-named read-outs stand apart in the source and are kept apart here.
# How the values were obtained:
# [1] = system: NIH 3T3 (non-malignant mouse fibroblasts); assay: SRB cytotoxicity assay, 72 h; type: cell-based; details: Mus musculus, NIH3T3; NIH 3T3, 72 h, cut-off 30 µM; read-out: EC50
# Procedure: The cytotoxicity of compounds 1–20 was evaluated by means of a colorimetric sulforhodamine B (SRB) assay. For all compounds, the EC50 values were determined for the human tumor cell lines A375 (malignant melanoma), HT29 (colorectal carcinoma), MCF-7 (breast carcinoma), A2780 (ovarian carcinoma), FaDu (hypopharyngeal carcinoma), and NIH 3T3 (non-malignant mouse fibroblasts).
# In short, exponentially growing cells were seeded into 96-well plates on day 0 at the appropriate cell densities to prevent confluence of the cells during the period of experiment. After 24 h, the cells were treated with serial dilutions of the compounds (0–30 µM) for 72 h. The final concentration of DMSO never exceeded 0.5%, which was non-toxic to the cells. After a 72 h treatment, the supernatant medium from the 96-well plates was discarded, and the cells were fixed with 10% TCA. For a thorough fixation, the plates were allowed to rest at 4 °C. After fixation, the cells were washed in a strip washer. The washing was done four times with water using alternate dispensing and aspiration procedures. The plates were then dyed with 100 µL of 0.4% SRB for about 20 min. After dying, the plates were washed with 1% acetic acid to remove the excess of the dye and allowed to air-dry overnight. Tris base solution (200 µL, 10 mM) was added to each well and absorbance was measured at λ = 570 nm (using a 96 well plate reader, Tecan Spectra, Crailsheim, Germany). The percentages of surviving cells relative to untreated controls were determined.
# MDA-MB-435 (Melanoma) = assay: NCI-60 screen (SRB, 48 h); type: cell-based
# [2] = system: MDA-MB-468 (Breast cancer); assay: cells; details: Homo sapiens; for GI50: MDA-MB-468; for IC (TGI): MDA-MB-468, 48 h, read-out: TGI; for CC50: MDA-MB-468, read-out: LC50
# NSC lung cancer subpanel = assay: NCI-60 screen, subpanel; details: Homo sapiens; for IC (TGI): 48 h, read-out: TGI MG_MID; for GI50: read-out: GI50 MG_MID; for CC50: read-out: LC50 MG_MID
# Ovarian Cancer subpanel = assay: NCI-60 screen, subpanel; details: Homo sapiens; for IC (TGI): 48 h, read-out: TGI MG_MID; for GI50: read-out: GI50 MG_MID
# MOLT-4 (Leukemia) = assay: NCI-60 screen (SRB, 48 h); details: Homo sapiens; for GI50: MOLT-4
# HOP-62 (NSC lung cancer) = assay: NCI-60 screen (SRB, 48 h); details: Homo sapiens; for GI50: HOP-62
# HOP-92 (NSC lung cancer) = assay: NCI-60 screen (SRB, 48 h); details: Homo sapiens; for GI50: HOP-92; for IC (TGI): HOP-92, 48 h, read-out: TGI
# COLO 205 (Colon cancer) = assay: NCI-60 screen (SRB, 48 h); details: Homo sapiens; for GI50: COLO 205; for IC (TGI): COLO 205, 48 h, read-out: TGI
# HCT-116 (Colon cancer) = assay: NCI-60 screen (SRB, 48 h); details: Homo sapiens; for GI50: HCT-116; for activity at 10 µM / IC (TGI): HCT-116, 48 h; for activity at 10 µM: read-out: Growth % of the Most Sensitive Cell Lines; for IC (TGI): read-out: TGI
# SF-268 (CNS cancer) = assay: NCI-60 screen (SRB, 48 h); details: Homo sapiens; for GI50: SF-268
# SF-539 (CNS cancer) = assay: NCI-60 screen (SRB, 48 h); details: Homo sapiens; for GI50: SF-539; for IC (TGI): SF-539, 48 h, read-out: TGI
# SNB-75 (CNS cancer) = assay: NCI-60 screen (SRB, 48 h); details: for GI50: SNB-75; for IC (TGI): SNB-75, 48 h, read-out: TGI
# M14 (Melanoma) = assay: NCI-60 screen (SRB, 48 h); details: for GI50: M14; for IC (TGI): M14, 48 h, read-out: TGI
# UACC-62 (Melanoma) = assay: NCI-60 screen (SRB, 48 h); details: Homo sapiens; for GI50: UACC-62; for IC (TGI): UACC-62, 48 h, read-out: TGI; for CC50: UACC-62, read-out: LC50
# OVCAR-5 (Ovarian cancer) = assay: NCI-60 screen (SRB, 48 h); details: Homo sapiens; for GI50: OVCAR-5
# OVCAR-8 (Ovarian cancer) = assay: NCI-60 screen (SRB, 48 h); details: Homo sapiens; for GI50: OVCAR-8
# SK-OV-3 (Ovarian cancer) = assay: NCI-60 screen (SRB, 48 h); details: Homo sapiens; for GI50: SK-OV-3; for IC (TGI): SK-OV-3, 48 h, read-out: TGI
# 786-0 (Renal cancer) = assay: NCI-60 screen (SRB, 48 h); details: Homo sapiens; for GI50: 786-0; for IC (TGI): 786-0, 48 h, read-out: TGI
# CAKI-1 (Renal cancer) = assay: NCI-60 screen (SRB, 48 h); details: Homo sapiens; for GI50: CAKI-1
# RXF 393 (Renal cancer) = assay: NCI-60 screen (SRB, 48 h); details: Homo sapiens
# PC-3 (Prostate cancer) = assay: NCI-60 screen (SRB, 48 h); details: Homo sapiens; for GI50: PC-3
structure (smiles),measurement,setting,value
C=C(C)[C@@H]1CC[C@]2(C(=O)N[C@H](CO)Cc3ccccc3)CC[C@]3(C)[C@H](CC[C@@H]4[C@@]5(C)CCCNC(C)(C)[C@@H]5CC[C@]43C)[C@@H]12 [Compound 11],EC50,[1],1230 ± 300 nM
same,IC (TGI),"MDA-MB-435 (Melanoma); Homo sapiens, MDA-MB-435, 48 h; read-out: TGI",2360 nM
same,GI50,"MDA-MB-435 (Melanoma); Homo sapiens, MDA-MB-435; read-out: GI50",1100 nM
same,GI50,[2],1520 nM
same,IC (TGI),[2],3030 nM
same,CC50,[2],6010 nM
same,IC (TGI),NSC lung cancer subpanel,3150 nM
same,GI50,NSC lung cancer subpanel,1520 nM
same,CC50,NSC lung cancer subpanel,6410 nM
same,IC (TGI),Ovarian Cancer subpanel,2620 nM
same,GI50,Ovarian Cancer subpanel,1200 nM
same,GI50,MOLT-4 (Leukemia),670 nM
same,IC (TGI),"MOLT-4 (Leukemia); MOLT-4, 48 h, read-out: TGI",2300 nM
same,GI50,HOP-62 (NSC lung cancer),1710 nM
same,IC (TGI),"HOP-62 (NSC lung cancer); HOP-62, 48 h, read-out: TGI",3340 nM
same,GI50,HOP-92 (NSC lung cancer),1420 nM
same,IC (TGI),HOP-92 (NSC lung cancer),3010 nM
same,CC50,"HOP-92 (NSC lung cancer); HOP-92, read-out: LC50",6420 nM
same,GI50,COLO 205 (Colon cancer),1310 nM
same,IC (TGI),COLO 205 (Colon cancer),2940 nM
same,GI50,HCT-116 (Colon cancer),310 nM
same,activity at 10 µM,HCT-116 (Colon cancer),-94.8%
same,IC (TGI),HCT-116 (Colon cancer),1250 nM
same,GI50,SF-268 (CNS cancer),1560 nM
same,IC (TGI),"SF-268 (CNS cancer); SF-268, 48 h, read-out: TGI",3390 nM
same,GI50,SF-539 (CNS cancer),1730 nM
same,IC (TGI),SF-539 (CNS cancer),3190 nM
same,GI50,SNB-75 (CNS cancer); Homo sapiens,1430 nM
same,IC (TGI),SNB-75 (CNS cancer); Homo sapiens,2870 nM
same,CC50,"SNB-75 (CNS cancer); Homo sapiens, SNB-75, read-out: LC50",5720 nM
same,Growth % of the Most Sensitive Cell Lines,"SNB-75 (CNS cancer); SNB-75, 1 dose 10 µM",−95.12%
same,GI50,M14 (Melanoma); Homo sapiens,740 nM
same,IC (TGI),M14 (Melanoma); Homo sapiens,2190 nM
same,GI50,UACC-62 (Melanoma),1760 nM
same,IC (TGI),UACC-62 (Melanoma),3390 nM
same,CC50,UACC-62 (Melanoma),6520 nM
same,GI50,OVCAR-5 (Ovarian cancer),1690 nM
same,IC (TGI),"OVCAR-5 (Ovarian cancer); OVCAR-5, 48 h, read-out: TGI",3180 nM
same,GI50,OVCAR-8 (Ovarian cancer),1120 nM
same,IC (TGI),"OVCAR-8 (Ovarian cancer); OVCAR-8, 48 h, read-out: TGI",2800 nM
same,GI50,SK-OV-3 (Ovarian cancer),1730 nM
same,IC (TGI),SK-OV-3 (Ovarian cancer),3230 nM
same,GI50,786-0 (Renal cancer),400 nM
same,IC (TGI),786-0 (Renal cancer),1600 nM
same,GI50,CAKI-1 (Renal cancer),1490 nM
same,IC (TGI),"CAKI-1 (Renal cancer); CAKI-1, 48 h, read-out: TGI",2890 nM
same,CC50,"CAKI-1 (Renal cancer); CAKI-1, read-out: LC50",5600 nM
same,GI50,RXF 393 (Renal cancer); RXF 393,1670 nM
same,IC (TGI),"RXF 393 (Renal cancer); RXF 393, 48 h, read-out: TGI",3270 nM
same,GI50,PC-3 (Prostate cancer),1160 nM
same,IC (TGI),"PC-3 (Prostate cancer); PC-3, 48 h, read-out: TGI",2620 nM
C[C@H]1[C@H](C)CC[C@]2(C(=O)Nc3ccc4ncccc4c3)CC[C@]3(C)C(=CC[C@@H]4[C@@]5(C)CCCNC(C)(C)[C@@H]5CC[C@]43C)[C@H]12 [Compound 14],EC50,[1],1690 ± 100 nM
same,GI50,"MDA-MB-435 (Melanoma); Homo sapiens, MDA-MB-435",1580 nM
same,IC (TGI),"MDA-MB-435 (Melanoma); Homo sapiens, MDA-MB-435, 48 h, read-out: TGI",3000 nM
same,Growth % of the Most Sensitive Cell Lines,"MDA-MB-435 (Melanoma); MDA-MB-435, 1 dose 10 µM",−91.82%
same,GI50,[2],1740 nM
same,IC (TGI),[2],3450 nM
same,CC50,[2],6870 nM
same,IC (TGI),NSC lung cancer subpanel,3360 nM
same,GI50,NSC lung cancer subpanel,1780 nM
same,CC50,NSC lung cancer subpanel,7530 nM
same,IC (TGI),Ovarian Cancer subpanel,3300 nM
same,GI50,Ovarian Cancer subpanel,1770 nM
same,CC50,Ovarian Cancer subpanel; read-out: LC50 MG_MID,6690 nM
same,GI50,MOLT-4 (Leukemia),1420 nM
same,GI50,HOP-62 (NSC lung cancer),1760 nM
same,GI50,HOP-92 (NSC lung cancer),1540 nM
same,IC (TGI),HOP-92 (NSC lung cancer),3140 nM
same,GI50,COLO 205 (Colon cancer),1750 nM
same,IC (TGI),COLO 205 (Colon cancer),3590 nM
same,GI50,HCT-116 (Colon cancer),1600 nM
same,activity at 10 µM,HCT-116 (Colon cancer),-100%
same,IC (TGI),HCT-116 (Colon cancer),3110 nM
same,CC50,"HCT-116 (Colon cancer); HCT-116, read-out: LC50",6050 nM
same,GI50,SF-268 (CNS cancer),1730 nM
same,GI50,SF-539 (CNS cancer),1610 nM
same,IC (TGI),SF-539 (CNS cancer),3010 nM
same,GI50,SNB-75 (CNS cancer); Homo sapiens,1520 nM
same,IC (TGI),SNB-75 (CNS cancer); Homo sapiens,3090 nM
same,GI50,M14 (Melanoma); Homo sapiens,1940 nM
same,IC (TGI),M14 (Melanoma); Homo sapiens,3590 nM
same,CC50,"M14 (Melanoma); Homo sapiens, M14, read-out: LC50",6650 nM
same,Growth % of the Most Sensitive Cell Lines,"M14 (Melanoma); M14, 1 dose 10 µM",−92.02%
same,GI50,UACC-62 (Melanoma),1740 nM
same,IC (TGI),UACC-62 (Melanoma),3230 nM
same,CC50,UACC-62 (Melanoma),6000 nM
same,GI50,OVCAR-5 (Ovarian cancer),1680 nM
same,GI50,OVCAR-8 (Ovarian cancer),1860 nM
same,GI50,SK-OV-3 (Ovarian cancer),1770 nM
same,IC (TGI),SK-OV-3 (Ovarian cancer),3270 nM
same,GI50,786-0 (Renal cancer),1850 nM
same,IC (TGI),786-0 (Renal cancer),3480 nM
same,GI50,CAKI-1 (Renal cancer),1560 nM
same,GI50,PC-3 (Prostate cancer),1760 nM
